Where “and” joins values, the source holds several entries; their conditions need not be identical. Identical values can stand only once. Entries after “also recorded” stand apart in the source; their conditions may differ. Like-named read-outs stand apart in the source and are kept apart here. Values belong to the compound of their own block, whether it stands above or below them.
Assays:
bovine GRK2 = biological target: T1, bovine GRK2 (Bos taurus, UniProt P21146); test: radiometric GRK2 inhibition assay (tubulin phosphorylation)
T1 sequence (P21146 1-689): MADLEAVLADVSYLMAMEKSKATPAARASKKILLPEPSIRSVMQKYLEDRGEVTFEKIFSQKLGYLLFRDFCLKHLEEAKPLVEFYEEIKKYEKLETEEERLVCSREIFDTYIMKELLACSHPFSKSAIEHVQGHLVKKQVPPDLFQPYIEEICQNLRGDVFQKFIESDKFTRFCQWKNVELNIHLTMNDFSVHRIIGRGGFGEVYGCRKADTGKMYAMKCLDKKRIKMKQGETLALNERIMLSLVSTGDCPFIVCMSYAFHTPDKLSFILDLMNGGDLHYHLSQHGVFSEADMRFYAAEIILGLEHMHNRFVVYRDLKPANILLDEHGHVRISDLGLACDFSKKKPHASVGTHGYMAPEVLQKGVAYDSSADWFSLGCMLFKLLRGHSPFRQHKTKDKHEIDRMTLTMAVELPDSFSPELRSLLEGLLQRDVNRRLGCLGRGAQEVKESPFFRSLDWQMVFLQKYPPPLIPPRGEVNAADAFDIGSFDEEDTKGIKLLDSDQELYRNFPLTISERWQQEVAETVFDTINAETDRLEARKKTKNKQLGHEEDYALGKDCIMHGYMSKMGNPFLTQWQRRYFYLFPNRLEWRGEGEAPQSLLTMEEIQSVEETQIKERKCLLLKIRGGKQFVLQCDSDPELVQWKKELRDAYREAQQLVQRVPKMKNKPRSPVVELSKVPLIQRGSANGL

GRK5 (Cys474) = GRK5 (Cys474) (Homo sapiens, UniProt P34947); test: Intact protein MS, covalent labelling of GRK5; format: binding
GRK5 [1] = biological target: T2, GRK5 (Homo sapiens, UniProt P34947); test: radiometric GRK5 inhibition assay (tubulin phosphorylation); details: for IC50: read-out: GRK5 IC50
Target sequence in this assay (P34947 whole entry): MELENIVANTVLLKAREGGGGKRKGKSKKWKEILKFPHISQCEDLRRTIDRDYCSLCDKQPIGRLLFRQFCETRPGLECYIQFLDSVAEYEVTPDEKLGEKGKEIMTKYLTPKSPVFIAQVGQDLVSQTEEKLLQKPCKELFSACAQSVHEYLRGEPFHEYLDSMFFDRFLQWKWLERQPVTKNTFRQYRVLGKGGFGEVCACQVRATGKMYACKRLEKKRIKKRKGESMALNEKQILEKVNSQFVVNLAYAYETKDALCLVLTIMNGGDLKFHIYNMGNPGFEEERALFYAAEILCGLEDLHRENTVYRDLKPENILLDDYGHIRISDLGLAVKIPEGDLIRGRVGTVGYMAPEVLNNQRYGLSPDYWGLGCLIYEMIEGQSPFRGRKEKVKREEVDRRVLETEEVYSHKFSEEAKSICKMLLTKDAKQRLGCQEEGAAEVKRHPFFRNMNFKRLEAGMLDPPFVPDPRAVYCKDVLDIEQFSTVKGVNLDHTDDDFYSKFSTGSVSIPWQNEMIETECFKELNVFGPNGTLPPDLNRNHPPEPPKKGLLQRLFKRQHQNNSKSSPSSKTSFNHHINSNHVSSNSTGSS

EGFR = EGFR (Homo sapiens, UniProt P00533); test: Kinome panel, EGFR; format: biochemical; details: tested at 1 μM
PDGFR = test: Kinome panel, PDGFR; format: biochemical; details: tested at 1 μM
FGFR1/2 = test: Kinome panel, FGFR1/2; format: biochemical; details: tested at 1 μM
GRK6 = GRK6 (Homo sapiens, UniProt P43250); test: Kinome panel, GRK6; format: biochemical; details: tested at 1 μM
PKA = PKA (Homo sapiens, UniProt P17612); test: PKA inhibition assay (ADP-Glo); format: biochemical
Method: The PKA inhibition assays were performed with the ADP-Glo system (Promega Corporation) according to the manufactory's instruction. […] After the initial reaction, ADP-Glo reagent was added to the reaction and allowed to incubate for an additional 40 min. Lastly, the kinase detection reagent was added and allowed to incubate for 30 min, and the luminescence was measured with a FlexStation 3 Multi-mode Microplate Reader (Molecular Devices). All data was analyzed in the same way as GRK inhibition assay. Experiments were performed three times in duplicate.
Standard control compounds are run during each assay to assess consistency across time, experimenters, and subtle changes in assay conditions that are sometimes required to keep some of the compounds soluble and disperse (such as through addition of DDM or 3% DMSO). Paroxetine were used as controls for GRK2 and PKA, and CCG215022 for GRK5.

GRK5 [2] = biological target: T2, GRK5; test: Kinome panel, GRK5; format: biochemical; details: tested at 1 μM
Target sequence in this assay (P34947 whole entry, species assumed): as the sequence (P34947 whole entry) above

KIT = KIT (Homo sapiens, UniProt P10721); test: Kinome panel, KIT; format: biochemical; details: tested at 1 μM
kinome = test: Kinome-wide selectivity panel; format: biochemical; details: tested at 10 nM, in relation to 100 nM and 1 μM panels
[3] = Thermodynamic solubility (Analiza Inc.); format: physicochemical; details: Water
Description: Experimental data collected by Analiza Inc. Experimental values represent an average of n=1 experiments.

[4] = Metabolic stability in human liver microsomes; format: in vitro ADME; details: 4-fluoro pendant added to phenyl ring
[5] = read-out: GRK2 IC50, Table 1, μM ± SD
[6] = intact protein MS, incubation time not stated
[7] = intact protein MS, 30 min incubation
[8] = read-out: GRK2 IC50, Table 2, μM ± SD

GRK5 (Cys474), sequence (P34947 whole entry): as above
EGFR, sequence (P00533 25-1210, species assumed): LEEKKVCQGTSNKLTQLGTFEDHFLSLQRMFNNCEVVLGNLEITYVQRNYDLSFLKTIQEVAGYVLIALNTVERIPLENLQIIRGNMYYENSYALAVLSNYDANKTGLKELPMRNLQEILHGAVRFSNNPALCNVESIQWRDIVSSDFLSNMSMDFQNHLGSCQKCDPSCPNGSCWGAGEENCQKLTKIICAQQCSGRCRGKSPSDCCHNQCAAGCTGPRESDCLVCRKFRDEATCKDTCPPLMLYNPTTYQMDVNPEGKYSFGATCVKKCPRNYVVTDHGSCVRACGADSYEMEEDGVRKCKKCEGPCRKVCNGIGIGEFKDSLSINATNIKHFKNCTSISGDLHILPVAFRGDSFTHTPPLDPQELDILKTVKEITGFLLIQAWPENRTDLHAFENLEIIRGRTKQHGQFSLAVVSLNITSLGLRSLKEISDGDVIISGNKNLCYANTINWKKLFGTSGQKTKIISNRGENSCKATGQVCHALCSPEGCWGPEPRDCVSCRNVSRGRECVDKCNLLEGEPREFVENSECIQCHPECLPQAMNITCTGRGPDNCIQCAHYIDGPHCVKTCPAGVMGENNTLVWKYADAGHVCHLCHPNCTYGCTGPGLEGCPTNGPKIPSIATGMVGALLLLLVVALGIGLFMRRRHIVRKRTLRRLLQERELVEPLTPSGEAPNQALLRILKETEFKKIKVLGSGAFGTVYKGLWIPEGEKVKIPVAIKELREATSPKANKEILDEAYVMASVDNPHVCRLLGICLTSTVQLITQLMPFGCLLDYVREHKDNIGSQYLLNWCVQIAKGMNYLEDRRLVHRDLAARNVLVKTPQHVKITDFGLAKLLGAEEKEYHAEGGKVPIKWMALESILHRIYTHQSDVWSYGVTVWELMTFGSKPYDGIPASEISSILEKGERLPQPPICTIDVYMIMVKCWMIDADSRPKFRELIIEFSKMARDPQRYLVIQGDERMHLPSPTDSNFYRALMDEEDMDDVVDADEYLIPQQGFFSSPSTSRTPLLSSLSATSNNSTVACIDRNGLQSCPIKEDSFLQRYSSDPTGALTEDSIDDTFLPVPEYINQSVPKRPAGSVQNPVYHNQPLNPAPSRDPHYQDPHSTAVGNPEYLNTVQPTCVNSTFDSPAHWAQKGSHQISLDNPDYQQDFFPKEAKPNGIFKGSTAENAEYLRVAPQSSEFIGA
GRK6, sequence (P43250 whole entry, species assumed): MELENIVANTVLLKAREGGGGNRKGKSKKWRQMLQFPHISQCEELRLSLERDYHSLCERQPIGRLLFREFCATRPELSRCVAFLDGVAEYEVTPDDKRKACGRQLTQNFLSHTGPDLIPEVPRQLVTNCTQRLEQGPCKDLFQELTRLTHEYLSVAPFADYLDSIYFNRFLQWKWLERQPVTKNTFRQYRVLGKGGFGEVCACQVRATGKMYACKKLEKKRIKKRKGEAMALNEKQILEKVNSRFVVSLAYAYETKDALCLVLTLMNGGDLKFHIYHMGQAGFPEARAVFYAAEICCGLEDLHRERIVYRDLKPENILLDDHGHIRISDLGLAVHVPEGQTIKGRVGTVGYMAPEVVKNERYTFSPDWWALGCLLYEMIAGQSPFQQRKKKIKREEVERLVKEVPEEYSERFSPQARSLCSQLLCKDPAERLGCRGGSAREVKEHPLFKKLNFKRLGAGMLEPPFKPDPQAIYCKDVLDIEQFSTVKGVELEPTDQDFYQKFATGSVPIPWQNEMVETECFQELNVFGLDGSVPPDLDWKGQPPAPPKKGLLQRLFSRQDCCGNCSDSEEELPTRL
KIT, sequence (P10721 26-976, species assumed): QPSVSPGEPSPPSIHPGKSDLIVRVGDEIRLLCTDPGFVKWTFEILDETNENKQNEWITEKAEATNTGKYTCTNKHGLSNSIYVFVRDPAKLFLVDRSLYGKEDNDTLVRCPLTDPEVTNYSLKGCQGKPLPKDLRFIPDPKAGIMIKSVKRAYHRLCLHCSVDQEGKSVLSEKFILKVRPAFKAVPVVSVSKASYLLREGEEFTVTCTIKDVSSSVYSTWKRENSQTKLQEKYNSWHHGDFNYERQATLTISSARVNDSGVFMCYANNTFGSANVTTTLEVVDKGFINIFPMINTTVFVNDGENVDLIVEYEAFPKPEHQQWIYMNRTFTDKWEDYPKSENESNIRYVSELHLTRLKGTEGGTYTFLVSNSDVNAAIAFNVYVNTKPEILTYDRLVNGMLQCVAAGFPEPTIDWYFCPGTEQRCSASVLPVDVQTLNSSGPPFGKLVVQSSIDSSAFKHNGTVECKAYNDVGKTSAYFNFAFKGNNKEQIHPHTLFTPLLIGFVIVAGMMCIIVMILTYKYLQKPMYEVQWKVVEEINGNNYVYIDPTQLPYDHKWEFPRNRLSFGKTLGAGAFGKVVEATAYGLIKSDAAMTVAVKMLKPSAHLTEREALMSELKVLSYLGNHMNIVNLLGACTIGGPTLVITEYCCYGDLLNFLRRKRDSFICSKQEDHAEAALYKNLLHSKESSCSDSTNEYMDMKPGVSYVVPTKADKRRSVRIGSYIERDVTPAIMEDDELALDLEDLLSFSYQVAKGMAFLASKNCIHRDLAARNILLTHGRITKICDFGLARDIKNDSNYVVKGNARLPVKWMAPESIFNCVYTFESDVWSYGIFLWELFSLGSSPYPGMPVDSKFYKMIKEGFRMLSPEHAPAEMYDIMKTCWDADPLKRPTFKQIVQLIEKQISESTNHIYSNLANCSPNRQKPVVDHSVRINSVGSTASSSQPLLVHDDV

IC50 (bovine GRK2): 190 ± 70 µM | covalent labelling of GRK5 (GRK5 (Cys474); intact MS, overnight / 8 hours): partial labelling | GRK2/GRK5 (GRK5 [1]; Table 2, ratio of IC50 values): 15
Compound: Cc1[nH]c(/C=C2\C(=O)Nc3ccc(C(=O)N[C@@H](c4ccccc4)C(C)C)cc32)c(C)c1NC(=O)CCl [Compound 9r, (R,Z)-3-((4-(2-chloroacetamido)-3,5-dimethyl-1H-pyrrol-2-yl)methylene)-N-(2-methyl-1-phenylpropyl)-2-oxoindoline-5-carboxamide]

IC50 (bovine GRK2; [5]): 150 ± 30 µM | covalent labelling of GRK5 (GRK5 (Cys474); [6]): did not show any covalent engagement | potency / affinity against GRK5 in words (GRK5 [1]): low μM potency | GRK2/GRK5 (GRK5 [1]; Table 1, ratio of IC50 values): 61 | IC50 (GRK5 [1]; Table 1, μM ± SD): 2.5 ± 0.8 µM
Compound: CC#CC(=O)Nc1c(C)[nH]c(/C=C2\C(=O)Nc3ccc(C(=O)N[C@H](C)c4ccccc4)cc32)c1C [Compound 9a, (R,Z)-3-((4-(but-2-ynamido)-3,5-dimethyl-1H-pyrrol-2-yl)methylene)-2-oxo-N-(1-phenylethyl)indoline-5-carboxamide]

IC50 (bovine GRK2; [5]): 44 ± 40 µM | inhibition at 1 µM (EGFR): 17% | inhibition at 1 µM (GRK6): 94%
Compound: C#CCNC(=O)c1c(C)[nH]c(/C=C2\C(=O)Nc3ccc(C(=O)N[C@H](C)c4ccccc4)cc32)c1C [Compound 5c, (R,Z)-3-((3,5-dimethyl-4-(prop-2-yn-1-ylcarbamoyl)-1H-pyrrol-2-yl)methylene)-2-oxo-N-(1-phenylethyl)indoline-5-carboxamide]
inhibition of PDGFR (PDGFR): 99-100% | inhibition of FGFR1/2 (FGFR1/2): 92-98%

covalent labelling of GRK5 (GRK5 (Cys474); intact MS, overnight / 8 hours): completes labelling of GRK5 | IC50 (PKA; Table 2, μM ± SD): > 250 µM | GRK2/GRK5 (GRK5 [1]; Table 2, ratio of IC50 values): 260
Compound: Cc1[nH]c(/C=C2\C(=O)Nc3ccc(C(=O)NC(C)(C)c4ccccc4)cc32)c(C)c1NC(=O)CCl [Compound 9s, (Z)-3-((4-(2-chloroacetamido)-3,5-dimethyl-1H-pyrrol-2-yl)methylene)-2-oxo-N-(2-phenylpropan-2-yl)indoline-5-carboxamide]

IC50 (bovine GRK2; [5]): 12 ± 20 µM | inhibition at 1 µM (GRK5 [2]): 93% | fraction of GRK5 labelled (GRK5 (Cys474); [7]): 50% | inhibition at 1 µM (KIT): 84% | IC50 (PKA; Table 1, μM ± SD): > 250 µM | inhibition at 1 µM (EGFR): 17% | selectivity for GRK5 over GRK2 (GRK5 [1]): 1400 fold | GRK2/GRK5 (GRK5 [1]; Table 1, ratio of IC50 values): 1400 | IC50 (GRK5 [1]): 0.0086 µM | inhibition at 1 µM (GRK6): 97%
Compound: Cc1[nH]c(/C=C2\C(=O)Nc3ccc(C(=O)N[C@H](C)c4ccccc4)cc32)c(C)c1NC(=O)CBr [Compound 9g, (R,Z)-3-((4-(2-bromoacetamido)-3,5-dimethyl-1H-pyrrol-2-yl)methylene)-2-oxo-N-(1-phenylethyl)indoline-5-carboxamide]
covalent labelling of GRK5 (GRK5 (Cys474); [6]): able to label GRK5 at Cys474; also recorded: able to form a covalent interaction | inhibition of PDGFR (PDGFR): 99% | inhibition of FGFR1/2 (FGFR1/2): 94-98% | kinome-wide selectivity (kinome): far more selective across the kinome

IC50 (bovine GRK2; [8]): 13 ± 3 µM | covalent labelling of GRK5 (GRK5 (Cys474); intact MS, overnight / 8 hours): partial labelling | IC50 (PKA; Table 2, μM ± SD): > 250 µM
Compound: Cc1[nH]c(/C=C2\C(=O)Nc3ccc(C(=O)NCc4ccccc4)cc32)c(C)c1NC(=O)CCl [Compound 9q, (Z)—N-benzyl-3-((4-(2-chloroacetamido)-3,5-dimethyl-1H-pyrrol-2-yl)methylene)-2-oxoindoline-5-carboxamide]

Compound: Cc1[nH]c(/C=C2\C(=O)Nc3ccc(C(=O)N[C@H](C)c4ccc(F)cc4)cc32)c(C)c1NC(=O)CCl [Compound 9j, (R,Z)-3-((4-(2-chloroacetamido)-3,5-dimethyl-1H-pyrrol-2-yl)methylene)-N-(1-(4-fluorophenyl)ethyl)-2-oxoindoline-5-carboxamide]
IC50 (bovine GRK2; [8]): 4.8 ± 3 µM | covalent labelling of GRK5 (GRK5 (Cys474); [7]): form a covalent interaction with Cys474; also recorded: fully labels GRK5 | covalent labelling of GRK5 (GRK5 (Cys474); [6]): able to form a covalent interaction | IC50 (PKA; Table 2, μM ± SD): > 250 µM | pH After Assay ([3]; solubility assay): 3 | solubility thermodynamic ([3]; thermodynamic from solid, n=1): 90.7 µM and 44.8 µg/mL | increase of stability in HLMs [4]: 1.4 fold

Reference: patent US20230212120A1, “SMALL MOLECULE INHIBITORS OF GRK5 AND GRK5 SUBFAMILY MEMBERS AND USES THEREOF” (The Regents of the University of Michigan, priority 2020, published 2023)
